Here are results for two molecules from US10441599B2, “Pharmaceutical composition containing Ginkgolide B and blood platelet prostaglandin cyclooxygenase inhibitor and method for preparation thereof and use thereof” (priority 2014, dated 2019).

Holding throughout (format): in vivo, Japanese large-ear white rabbits
For test [1], the system named is platelets (morphology types after PAF). Put plainly: Scanning electron microscopy study of platelet morphology after addition of PAF. Conditions: for Types of morphology (%): Aggregated / Types of morphology (%): Circle / Types of morphology (%): Flat / Types of morphology (%): Tree like: rabbits 5.0 mg/kg once daily 7 days, PRP + PAF, SEM, 100 platelets, x ± s, n = 8; for Aggregated type platelets under scanning electron microscope: under induction of PAF, 2000-fold SEM. The procedure: 128 Japanese large-ear white rabbits with a weight of (2.0±0.2) kg, half male and half female, were provided by Chongqing Medical University Experimental Animal Center [animal certification number: XCXK (Yu) 20020001]. 128 Japanese large-ear white rabbits were randomly assigned to 16 groups, with 8 rabbits in each group: […] All groups were administered with a clinically used route and dosage for 7 days continuously. […] The types of platelet under the electron microscope includes: […] (3) Flat type has a dense core in the center and a wide transparent peripheral zone which has a smooth periphery or small bulges. (4) Aggregated-type is usually composed of several to dozens of platelets, with different sizes of the aggregates, wherein the platelets are mutually connected, some of the platelets are integrally fused into a whole, and the foot processes of the peripheral part are prominent.

Test [2] deals with rabbit β-thromboglobulin (β-TG). Put plainly: Determination of β-TG level in serum (ELISA) after PAF induction. Conditions: for level of β-TG compared with the saline group: p<0.01, p<0.05; for β-TG level: rabbits 5.0 mg/kg once daily 7 days, serum after PAF induction, x ± s, n = 8. The text has this:
(§1) 128 Japanese large-ear white rabbits with a weight of (2.0±0.2) kg, half male and half female, were provided by Chongqing Medical University Experimental Animal Center [animal certification number: XCXK (Yu) 20020001]. […] ELISA kit (FOCUS, lot number: 20130301). TYXN-96 multifunctional intelligent aggregometer (Shanghai General Technique Research Institute); Scanning electron microscope […]-800 Absorbance Reader (BioTek Instruments, Inc.). 128 Japanese large-ear white rabbits were randomly assigned to 16 groups, with 8 rabbits in each group: […] All groups were administered with a clinically used route and dosage for 7 days continuously. […] The plasma was rested at 4° C. for 4 hours, and 200 μL of serum was taken for detection. The specific operation is carried out according to the kit specification, and the result was read by the Absorbance Reader.
In general terms: ELISA stands for enzyme-linked immunosorbent assay.

Test [3] has as its system rabbit platelet aggregation induced by PAF. In words: Platelet aggregation rate induced by PAF in platelet-rich plasma of dosed rabbits. The following applies: for Platelet aggregation inhibition rate (%) / platelet aggregation rate, 1 min / platelet aggregation rate, 5 min / maximum platelet aggregation rate (MAX): rabbits 5.0 mg/kg once daily 7 days; for Platelet aggregation inhibition rate (%) / maximum platelet aggregation rate (MAX): PAF-induced; for Platelet aggregation inhibition rate (%): relative to saline group; for platelet aggregation rate, 1 min / platelet aggregation rate, 5 min / maximum platelet aggregation rate (MAX): PRP, x ± s, n = 8; for platelet aggregation rate, 1 min: 1 min after addition of 10 μL PAF; for platelet aggregation rate, 5 min: 5 min after addition of 10 μL PAF; for maximum platelet aggregation rate comparing with the saline group: under the induction of PAF, p<0.01, p<<0.05. The method, then: 128 Japanese large-ear white rabbits with a weight of (2.0±0.2) kg, half male and half female, were provided by Chongqing Medical University Experimental Animal Center [animal certification number: XCXK (Yu) 20020001].
Platelet activation factors (PAF) (cayman, lot number: 011219) was dissolved in the Tris-NaCl solution containing 0.25% of calf serum albumin at a pH of 7.6, to a final concentration of 3.6 nmoL/L; sodium citrate (Beijing Zhongshanjinqiao Biotechnology Company, lot number: 20130117) dissolved in the distilled water with 3.8% concentration; rabbit β-thromboglobulin (β-TG) ELISA kit (FOCUS, lot number: 20130224), rabbit platelet factor 4 (PF-4) (lot number: ELISA kit (FOCUS, lot number: 20130301). TYXN-96 multifunctional intelligent aggregometer (Shanghai General Technique Research Institute); Scanning electron microscope S-3000 N (Hitachi Limited); ELX-800 Absorbance Reader (BioTek Instruments, Inc.).
128 Japanese large-ear white rabbits were randomly assigned to 16 groups, with 8 rabbits in each group: (1) Saline group, (2) Ginkgolide B group, (3) Aspirin group, (4) Jinnaduo group, (5) Composition 1 group, (6) Composition 2 group, (7) Composition 3 group, (8) Composition 4 group, (9) Composition 5 group, (10) Composition 6 group, (11) Composition 7 group, (12) Composition 8 group, (13) Composition 9 group, (14) Composition 10 group, (15) Composition 11 group, (16) Composition 12 group. All groups were administered with a clinically used route and dosage for 7 days continuously.
After 7 days of administration, 10.5 ml of blood was taken from the heart of each animal, wherein 1.5 ml of plasma was used for taking serum and the rest 9 ml of plasma was subjected to 3.8% sodium citrate at 1:9 for anticoagulation, centrifuging for 10 minutes at 800 r/min, and taking the supernatant to obtain platelet-rich plasma (PRP).), wherein 100 μl of the PRP was taken for electron microscope examination, and the rest of the PRP was used for detecting of the platelet aggregation rate; the remaining portion was centrifuged for 15 min at a speed of 3000 r/min, and platelet-depleted plasma (PPP) was obtained. PPP was used to adjust the number of platelet in PRP, to be at 360×10^9/L. The platelet aggregation rate and maximum platelet aggregation rate was studied and recorded after 1 min, 5 min of addition of 10 μL of PAF.
The statistical analysis is carried out using SPSS 18.0 software, and the platelet aggregation rates, the percentage of types of platelet morphology and the concentration of PF-4 and β-TG were analyzed using two-sample t-test. P-values<0.05 were considered statistically significant.

Test [4] relates to rabbit platelet factor 4 (PF-4). In words: Determination of PF-4 level in serum (ELISA) after PAF induction. Conditions: for PF-4 level: rabbits 5.0 mg/kg once daily 7 days, serum after PAF induction, x ± s, n = 8.
Excerpt: as §1

Structures are written as SMILES.

Regarding `CC(=O)Oc1ccccc1C(=O)O` [Aspirin, acetylsalicylic acid], in test [1], the “Types of morphology (%): Aggregated” value amounted to 54.0 ± 14.3 %, the “Types of morphology (%): Circle” value is 5.8 ± 2.6%, the “Types of morphology (%): Flat” value stood at 25.5 ± 8.4 % and the “Types of morphology (%): Tree like” value came to 14.7 ± 7.0 %. Moreover, in test [1], the “Aggregated type platelets under scanning electron microscope” value was “increased number of Aggregated type platelets”. In test [2], the “level of β-TG compared with the saline group” value was “didn't decrease significantly” and the β-TG level was 1.504 ± 0.244 µg/mL. Besides, in test [3], the “Platelet aggregation inhibition rate (%)” value turned out to be 31.53%; the “platelet aggregation rate, 1 min” value came out at 25.28 ± 5.06; the “platelet aggregation rate, 5 min” value amounted to 36.89 ± 5.53; the “maximum platelet aggregation rate (MAX)” value is listed as 48.08 ± 5.87. Moreover, the “maximum platelet aggregation rate comparing with the saline group” value in test [3] is given as “significant difference”. In test [4], this molecule showed a PF-4 level of 1.489 ± 0.228 µg/mL.

For the molecule `CC1C(=O)OC2C(O)C34C5CC(C(C)(C)C)C36C(OC(=O)C6O)OC4(C(=O)O5)C12O` (stereo not drawn) [Ginkgolide B], in test [1], the “Types of morphology (%): Aggregated” value was determined as 22.3 ± 9.6 %, the “Types of morphology (%): Circle” value is recorded as 31.6 ± 6.4 %, the “Types of morphology (%): Flat” value is on record as 46.1 ± 8.3 % and the “Types of morphology (%): Tree like” value was 15.8 ± 6.8 %. In test [1], the “Aggregated type platelets under scanning electron microscope” value was “rarely seen”. Besides, in test [2], the “level of β-TG compared with the saline group” value is “decreased significantly” and the β-TG level was found to be 1.247 ± 0.184 µg/mL. In test [3], the “Platelet aggregation inhibition rate (%)” value was 44.66%; the “platelet aggregation rate, 1 min” value stood at 21.36 ± 4.15; the “platelet aggregation rate, 5 min” value worked out at 33.54 ± 5.48; the “maximum platelet aggregation rate (MAX)” value was determined as 38.86 ± 4.74. Besides, in test [3], the “maximum platelet aggregation rate comparing with the saline group” value is recorded as “significant difference”. For the same molecule, in test [4] (p<0.01, p<0.05), the “level of PF-4 compared with the saline group” value is “decreased significantly”. Further, the PF-4 level in test [4] amounted to 1.264 ± 0.215 µg/mL.
